# Laboratory results reported in publication PMC9841527 (Journal of Medicinal Chemistry, 2022).
# Experiments:
# [1] = target: T1, CamA (Clostridioides difficile, UniProt Q183J3); assay: Isothermal titration calorimetry; assay type: binding; conditions: from that of compound 37
# T1 sequence (Q183J3 1-577): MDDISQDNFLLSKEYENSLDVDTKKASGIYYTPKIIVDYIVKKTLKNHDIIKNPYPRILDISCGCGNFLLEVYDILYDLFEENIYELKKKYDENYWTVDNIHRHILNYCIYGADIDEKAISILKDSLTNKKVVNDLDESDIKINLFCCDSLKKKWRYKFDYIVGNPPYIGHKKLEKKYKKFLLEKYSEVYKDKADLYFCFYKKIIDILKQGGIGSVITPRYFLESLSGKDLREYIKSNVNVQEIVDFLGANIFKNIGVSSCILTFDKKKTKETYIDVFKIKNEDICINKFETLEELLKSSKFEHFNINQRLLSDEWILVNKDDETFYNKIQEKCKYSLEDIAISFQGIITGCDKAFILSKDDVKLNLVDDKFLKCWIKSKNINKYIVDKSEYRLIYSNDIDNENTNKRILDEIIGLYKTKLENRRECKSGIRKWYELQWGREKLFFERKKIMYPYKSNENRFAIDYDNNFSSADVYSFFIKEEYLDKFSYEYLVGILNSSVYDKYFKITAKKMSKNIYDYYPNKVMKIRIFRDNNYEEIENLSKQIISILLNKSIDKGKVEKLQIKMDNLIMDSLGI
# [2] = target: CcrM (Caulobacter vibrioides, UniProt P0CAW2); assay type: biochemical, Caulobacter crescentus
# Chain of CcrM (P0CAW2 whole entry): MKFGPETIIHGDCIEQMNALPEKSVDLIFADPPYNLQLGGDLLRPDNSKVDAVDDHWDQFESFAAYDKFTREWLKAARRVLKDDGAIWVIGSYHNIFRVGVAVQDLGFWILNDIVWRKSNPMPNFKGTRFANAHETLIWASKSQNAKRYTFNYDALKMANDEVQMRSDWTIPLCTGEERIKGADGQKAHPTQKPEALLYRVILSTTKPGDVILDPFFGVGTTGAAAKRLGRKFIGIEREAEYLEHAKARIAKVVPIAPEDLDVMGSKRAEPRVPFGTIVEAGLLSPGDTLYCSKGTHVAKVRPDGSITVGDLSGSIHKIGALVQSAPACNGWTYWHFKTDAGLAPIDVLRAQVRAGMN
# [3] = target: T2, Dam (Escherichia coli, UniProt P0AEE8); assay type: biochemical
# T2 sequence (P0AEE8 1-278): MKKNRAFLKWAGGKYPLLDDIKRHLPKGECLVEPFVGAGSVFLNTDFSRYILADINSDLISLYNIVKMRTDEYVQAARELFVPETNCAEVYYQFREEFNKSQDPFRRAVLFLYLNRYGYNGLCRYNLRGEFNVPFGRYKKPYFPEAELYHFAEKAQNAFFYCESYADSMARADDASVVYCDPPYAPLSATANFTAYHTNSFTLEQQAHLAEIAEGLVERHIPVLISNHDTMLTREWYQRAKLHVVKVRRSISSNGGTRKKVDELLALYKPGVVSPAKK
# [4] = target: DNMT1 (Homo sapiens, UniProt P26358); assay: Selectivity assay, DNMT1; assay type: biochemical; conditions: [I] = 10 μM, [SAM] = 5.5 μM, 37 °C
# Chain of DNMT1 (P26358 351-1600): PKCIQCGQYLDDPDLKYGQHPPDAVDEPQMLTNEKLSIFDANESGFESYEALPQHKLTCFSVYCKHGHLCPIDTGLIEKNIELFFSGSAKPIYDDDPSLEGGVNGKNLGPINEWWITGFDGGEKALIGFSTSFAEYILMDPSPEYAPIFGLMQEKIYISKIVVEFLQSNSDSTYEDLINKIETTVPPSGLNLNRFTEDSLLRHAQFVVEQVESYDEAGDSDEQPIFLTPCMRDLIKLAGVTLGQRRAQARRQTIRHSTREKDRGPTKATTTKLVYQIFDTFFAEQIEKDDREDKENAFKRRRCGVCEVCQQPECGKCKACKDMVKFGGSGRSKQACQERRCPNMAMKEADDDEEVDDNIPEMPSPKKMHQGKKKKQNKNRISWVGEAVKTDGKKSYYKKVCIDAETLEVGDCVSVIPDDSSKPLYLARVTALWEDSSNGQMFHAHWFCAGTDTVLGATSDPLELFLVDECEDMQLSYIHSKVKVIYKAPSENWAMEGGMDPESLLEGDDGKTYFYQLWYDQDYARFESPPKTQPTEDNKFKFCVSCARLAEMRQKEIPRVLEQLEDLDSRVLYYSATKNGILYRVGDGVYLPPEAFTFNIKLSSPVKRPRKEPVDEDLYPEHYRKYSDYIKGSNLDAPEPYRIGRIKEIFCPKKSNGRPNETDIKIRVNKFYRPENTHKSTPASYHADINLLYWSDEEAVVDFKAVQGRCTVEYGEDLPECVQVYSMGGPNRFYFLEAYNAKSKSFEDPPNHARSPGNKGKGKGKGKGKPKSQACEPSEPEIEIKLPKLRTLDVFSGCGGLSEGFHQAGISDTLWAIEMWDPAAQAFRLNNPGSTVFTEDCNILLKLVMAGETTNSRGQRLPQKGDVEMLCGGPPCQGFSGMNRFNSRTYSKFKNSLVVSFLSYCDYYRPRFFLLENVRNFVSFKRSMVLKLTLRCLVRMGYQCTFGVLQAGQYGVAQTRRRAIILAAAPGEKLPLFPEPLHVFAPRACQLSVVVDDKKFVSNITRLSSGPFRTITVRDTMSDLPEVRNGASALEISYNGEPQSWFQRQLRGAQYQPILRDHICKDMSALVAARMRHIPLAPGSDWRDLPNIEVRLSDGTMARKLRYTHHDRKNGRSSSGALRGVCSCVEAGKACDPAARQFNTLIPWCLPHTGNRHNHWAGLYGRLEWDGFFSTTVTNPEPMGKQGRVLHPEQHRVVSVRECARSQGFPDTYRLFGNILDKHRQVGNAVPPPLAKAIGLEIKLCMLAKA
# [5] = target: Dnmt3a-Dnmt3L (Mus musculus, UniProt O88508); assay type: biochemical
# [6] = target: PCIF1 (Homo sapiens, UniProt Q9H4Z3); assay type: biochemical
# Chain of PCIF1 (Q9H4Z3 whole entry): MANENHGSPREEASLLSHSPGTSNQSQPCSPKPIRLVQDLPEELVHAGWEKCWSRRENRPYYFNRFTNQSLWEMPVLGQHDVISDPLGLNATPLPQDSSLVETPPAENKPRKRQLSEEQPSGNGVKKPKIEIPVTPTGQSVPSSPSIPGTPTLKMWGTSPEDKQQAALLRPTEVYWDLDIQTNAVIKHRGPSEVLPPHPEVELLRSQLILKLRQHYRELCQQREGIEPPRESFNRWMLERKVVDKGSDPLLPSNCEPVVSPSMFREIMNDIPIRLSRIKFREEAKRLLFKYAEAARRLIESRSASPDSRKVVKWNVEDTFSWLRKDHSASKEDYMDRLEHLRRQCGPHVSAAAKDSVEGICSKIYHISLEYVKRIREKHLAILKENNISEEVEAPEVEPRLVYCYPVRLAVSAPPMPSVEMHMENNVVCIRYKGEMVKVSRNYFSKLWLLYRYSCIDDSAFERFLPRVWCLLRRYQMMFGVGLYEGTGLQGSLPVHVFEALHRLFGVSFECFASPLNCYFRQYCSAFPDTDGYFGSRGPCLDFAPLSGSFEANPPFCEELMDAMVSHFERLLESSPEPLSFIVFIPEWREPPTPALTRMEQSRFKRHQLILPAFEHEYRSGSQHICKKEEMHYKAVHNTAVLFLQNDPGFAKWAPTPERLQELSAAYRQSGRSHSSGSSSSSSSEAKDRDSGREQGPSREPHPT
# [7] = target: MettL5-Trm112 (Homo sapiens, UniProt Q9NRN9); assay type: biochemical
# Chain of MettL5-Trm112 (Q9NRN9 whole entry): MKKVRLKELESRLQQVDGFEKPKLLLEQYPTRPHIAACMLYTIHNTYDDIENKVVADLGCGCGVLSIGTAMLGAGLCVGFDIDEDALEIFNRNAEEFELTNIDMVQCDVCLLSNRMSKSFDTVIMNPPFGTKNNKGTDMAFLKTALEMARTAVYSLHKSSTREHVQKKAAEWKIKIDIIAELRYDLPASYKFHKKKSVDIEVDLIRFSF
# Chain of MettL5-Trm112 (Q9UI30 whole entry partner): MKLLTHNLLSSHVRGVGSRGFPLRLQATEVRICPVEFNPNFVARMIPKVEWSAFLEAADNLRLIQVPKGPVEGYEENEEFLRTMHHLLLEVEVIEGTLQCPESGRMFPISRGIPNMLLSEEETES
# [8] = target: T3, MettL16 (Homo sapiens, UniProt Q86W50); assay: Selectivity assay, MettL16; assay type: biochemical; conditions: [I] = 10 μM, [SAM] = 160 μM or 30 μM
# T3 sequence (Q86W50 1-562): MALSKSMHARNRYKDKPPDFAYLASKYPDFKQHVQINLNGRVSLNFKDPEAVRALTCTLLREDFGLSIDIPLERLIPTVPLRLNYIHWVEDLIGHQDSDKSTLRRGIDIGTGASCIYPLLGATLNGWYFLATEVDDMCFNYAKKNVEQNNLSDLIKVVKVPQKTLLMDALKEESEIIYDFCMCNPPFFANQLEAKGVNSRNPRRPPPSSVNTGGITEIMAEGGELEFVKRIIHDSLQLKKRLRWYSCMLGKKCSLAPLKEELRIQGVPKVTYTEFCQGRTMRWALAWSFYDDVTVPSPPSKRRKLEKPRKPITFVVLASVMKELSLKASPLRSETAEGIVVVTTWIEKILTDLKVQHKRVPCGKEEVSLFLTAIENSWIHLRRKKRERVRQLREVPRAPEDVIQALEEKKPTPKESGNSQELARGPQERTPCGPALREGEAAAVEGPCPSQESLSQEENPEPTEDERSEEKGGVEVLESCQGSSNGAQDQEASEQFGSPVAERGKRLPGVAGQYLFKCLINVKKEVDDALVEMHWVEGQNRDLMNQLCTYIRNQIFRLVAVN
# [9] = target: MettL3-MettL14 (Homo sapiens, UniProt Q86U44); assay: Selectivity assay, MettL3-MettL14; assay type: biochemical; conditions: [I] = 10 μM, [SAM] = 20 μM, 5 mM NaCl, or CamA conditions
# Chain of MettL3-MettL14 (Q86U44 whole entry): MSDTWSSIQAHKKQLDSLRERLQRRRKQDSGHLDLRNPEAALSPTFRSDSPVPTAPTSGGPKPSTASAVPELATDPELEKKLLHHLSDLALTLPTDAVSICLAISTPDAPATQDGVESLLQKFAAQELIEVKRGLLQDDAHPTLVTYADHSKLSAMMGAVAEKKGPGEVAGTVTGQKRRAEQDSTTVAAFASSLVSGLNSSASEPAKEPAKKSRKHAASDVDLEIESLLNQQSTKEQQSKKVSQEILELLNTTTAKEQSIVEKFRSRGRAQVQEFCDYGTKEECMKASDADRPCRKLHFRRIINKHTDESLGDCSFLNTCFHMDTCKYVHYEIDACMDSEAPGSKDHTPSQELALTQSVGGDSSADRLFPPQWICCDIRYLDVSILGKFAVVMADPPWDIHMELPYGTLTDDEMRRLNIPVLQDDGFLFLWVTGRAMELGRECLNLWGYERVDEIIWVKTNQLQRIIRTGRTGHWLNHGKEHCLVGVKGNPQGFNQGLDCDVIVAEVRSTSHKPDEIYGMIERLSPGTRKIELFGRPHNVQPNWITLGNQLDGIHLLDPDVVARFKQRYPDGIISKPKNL
# Chain of MettL3-MettL14 (Q9HCE5 whole entry partner): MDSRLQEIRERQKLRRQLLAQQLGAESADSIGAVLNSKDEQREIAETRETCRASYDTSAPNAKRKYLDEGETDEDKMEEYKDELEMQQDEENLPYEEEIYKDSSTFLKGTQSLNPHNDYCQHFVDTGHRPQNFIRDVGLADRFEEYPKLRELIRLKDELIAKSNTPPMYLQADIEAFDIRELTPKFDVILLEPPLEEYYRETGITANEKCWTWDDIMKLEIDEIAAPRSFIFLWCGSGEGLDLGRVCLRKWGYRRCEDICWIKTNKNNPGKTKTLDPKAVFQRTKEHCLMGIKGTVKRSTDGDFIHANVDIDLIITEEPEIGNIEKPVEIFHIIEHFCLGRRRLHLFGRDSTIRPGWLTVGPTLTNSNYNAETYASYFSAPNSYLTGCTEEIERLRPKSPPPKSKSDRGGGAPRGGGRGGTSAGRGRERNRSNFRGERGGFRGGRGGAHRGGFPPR
# [10] = target: DOT1L (Homo sapiens, UniProt Q8TEK3); assay: Selectivity assay, DOT1L; assay type: biochemical; conditions: compound 10 μM, 3H-SAM 1 μM
# [11] = target: EZH2 complex (Homo sapiens, UniProt Q15910); assay: Selectivity assay, EZH2 complex; assay type: biochemical; conditions: compound 10 μM, 3H-SAM 1 μM
# [12] = target: T4, G9a (Homo sapiens, UniProt Q96KQ7); assay: Selectivity assay, G9a; assay type: biochemical; conditions: compound 10 μM, 3H-SAM 1 μM
# T4 sequence (Q96KQ7 1-1210): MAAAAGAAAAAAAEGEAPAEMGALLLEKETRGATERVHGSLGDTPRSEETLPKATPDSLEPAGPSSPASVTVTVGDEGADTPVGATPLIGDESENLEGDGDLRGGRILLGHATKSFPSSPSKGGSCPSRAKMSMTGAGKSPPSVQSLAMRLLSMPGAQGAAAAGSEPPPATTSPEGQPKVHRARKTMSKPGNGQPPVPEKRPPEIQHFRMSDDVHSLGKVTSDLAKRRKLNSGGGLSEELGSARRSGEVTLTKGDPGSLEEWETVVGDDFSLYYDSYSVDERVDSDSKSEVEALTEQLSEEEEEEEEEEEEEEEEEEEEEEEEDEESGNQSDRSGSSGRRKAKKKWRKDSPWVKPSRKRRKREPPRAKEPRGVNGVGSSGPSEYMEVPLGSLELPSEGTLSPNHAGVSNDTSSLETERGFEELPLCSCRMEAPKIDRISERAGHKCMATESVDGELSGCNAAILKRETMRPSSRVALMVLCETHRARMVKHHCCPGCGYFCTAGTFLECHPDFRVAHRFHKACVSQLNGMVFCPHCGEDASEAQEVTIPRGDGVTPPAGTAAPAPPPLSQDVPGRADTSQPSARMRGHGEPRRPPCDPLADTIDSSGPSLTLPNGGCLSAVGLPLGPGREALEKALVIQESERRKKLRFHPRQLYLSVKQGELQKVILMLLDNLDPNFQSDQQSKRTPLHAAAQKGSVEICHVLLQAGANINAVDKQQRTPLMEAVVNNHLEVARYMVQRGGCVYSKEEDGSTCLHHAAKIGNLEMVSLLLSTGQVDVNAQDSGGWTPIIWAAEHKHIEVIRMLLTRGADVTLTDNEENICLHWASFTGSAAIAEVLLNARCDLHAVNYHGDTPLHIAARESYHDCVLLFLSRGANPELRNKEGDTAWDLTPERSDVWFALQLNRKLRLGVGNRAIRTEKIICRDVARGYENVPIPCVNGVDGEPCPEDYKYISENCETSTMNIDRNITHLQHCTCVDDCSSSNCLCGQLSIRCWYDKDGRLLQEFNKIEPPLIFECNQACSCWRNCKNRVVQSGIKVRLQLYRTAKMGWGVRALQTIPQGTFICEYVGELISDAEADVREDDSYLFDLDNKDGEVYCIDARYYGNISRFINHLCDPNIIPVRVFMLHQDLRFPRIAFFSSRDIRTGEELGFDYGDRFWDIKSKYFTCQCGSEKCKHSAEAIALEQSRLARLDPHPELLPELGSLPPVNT
# [13] = target: PRMT1 (Homo sapiens, UniProt Q99873); assay: Selectivity assay, PRMT1; assay type: biochemical; conditions: compound 10 μM, 3H-SAM 1 μM
# Chain of PRMT1 (Q99873 whole entry): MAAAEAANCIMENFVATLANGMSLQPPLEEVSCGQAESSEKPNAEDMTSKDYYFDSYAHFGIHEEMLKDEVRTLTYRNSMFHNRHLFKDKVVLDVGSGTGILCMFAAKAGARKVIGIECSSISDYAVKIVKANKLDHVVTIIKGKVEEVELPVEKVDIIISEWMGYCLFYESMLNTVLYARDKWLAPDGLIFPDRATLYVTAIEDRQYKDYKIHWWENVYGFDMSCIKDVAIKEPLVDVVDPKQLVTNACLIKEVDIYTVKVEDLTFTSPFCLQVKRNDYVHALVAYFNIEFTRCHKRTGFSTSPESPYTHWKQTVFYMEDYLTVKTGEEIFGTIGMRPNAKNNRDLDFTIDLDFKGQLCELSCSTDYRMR
# [14] = target: T5, A1 adenosine receptor (A1AR) (Homo sapiens, UniProt P30542); assay: A1AR agonist radioligand binding assay; conditions: compound 10 μM, [3H]CCPA 1 nM, transfected CHO cell membranes
# T5 sequence (P30542 1-326): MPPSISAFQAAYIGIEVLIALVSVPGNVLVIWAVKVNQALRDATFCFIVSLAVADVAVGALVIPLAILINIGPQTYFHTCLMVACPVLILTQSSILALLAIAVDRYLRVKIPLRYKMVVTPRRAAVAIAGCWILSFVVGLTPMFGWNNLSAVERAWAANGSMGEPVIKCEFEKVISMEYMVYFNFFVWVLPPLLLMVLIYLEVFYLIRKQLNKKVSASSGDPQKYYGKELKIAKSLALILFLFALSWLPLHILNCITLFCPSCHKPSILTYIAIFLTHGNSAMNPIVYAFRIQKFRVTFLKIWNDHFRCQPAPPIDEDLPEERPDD
smiles,measurement,setting,value
"CC(C)(C)OC(=O)N1CCC(CCNc2ncnc3c2ncn3[C@@H]2O[C@H](CO)[C@@H](O)[C@H]2O)CC1 [Compound 38, tert-Butyl-4-(2-((9-((2R,3R,4S,5R)-3,4-dihydroxy-5-(hydroxymethyl)tetrahydrofuran-2-yl)-9H-purin-6-yl)amino)ethyl)piperidine-1-carboxylate]","KD improved, fold",[1],~8 ×
same,inhibition of CcrM,[2],none of them showed any significant inhibition
same,inhibition of Dam,[3],none of them showed any significant inhibition
same,inhibition of DNMT1,[4],none of them showed any significant inhibition
same,inhibition of Dnmt3a-Dnmt3L,[5],none of them showed any significant inhibition
same,inhibition of PCIF1,[6],none of them showed any significant inhibition
same,inhibition of MettL5-Trm112,[7],none of them showed any significant inhibition
same,inhibition of MettL16,[8],none of them showed any significant inhibition
same,inhibition of MettL3-MettL14,[9],none of them showed any significant inhibition
same,inhibition of DOT1L,[10],none of them showed any significant inhibition
same,inhibition of EZH2 complex,[11],none of them showed any significant inhibition
same,inhibition of G9a,[12],none of them showed any significant inhibition
same,inhibition of PRMT1,[13],none of them showed any significant inhibition
same,"inhibition of control radioligand specific binding, A1AR",[14],minimal inhibition of specific binding
